According to ChEMBL document CHEMBL3879908, “Pyrrolidinone carboxamide derivatives” (2014):

Target: T1, Chemerin-like receptor 1 (Homo sapiens, UniProt Q99788)
T1 sequence (Q99788 whole entry): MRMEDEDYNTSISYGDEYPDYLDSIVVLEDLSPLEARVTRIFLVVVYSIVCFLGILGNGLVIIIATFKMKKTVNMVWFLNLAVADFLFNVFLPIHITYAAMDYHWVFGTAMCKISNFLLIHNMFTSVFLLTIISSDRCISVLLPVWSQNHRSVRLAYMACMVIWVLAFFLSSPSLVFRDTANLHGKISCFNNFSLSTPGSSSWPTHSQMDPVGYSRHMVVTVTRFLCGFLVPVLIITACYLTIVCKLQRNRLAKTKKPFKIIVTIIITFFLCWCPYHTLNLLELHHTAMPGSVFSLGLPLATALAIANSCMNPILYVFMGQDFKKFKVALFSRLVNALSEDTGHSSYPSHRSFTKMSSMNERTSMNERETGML
Assay: Displacement of [125I]-chemerin from ChemR23 (unknown origin) transfected in mouse BaF3 cells after 3 hrs by scintillation counting method
Type: cell-based

SMILES | IC50
Cc1cccc(C)c1N1CC(C(=O)Nc2cc(C(F)(F)F)cc(C(F)(F)F)c2)(C2=CCNCC2)CC1=O (stereo not given) | 300 to 6000 nM
CC[C@@]1(C(=O)Nc2cc(OC(C)C)cc(C(F)(F)F)c2)CN(c2c(C)cccc2C)C(=O)[C@H]1C | ≤ 30 nM
Cc1cccc(C)c1N1CC(C(=O)Nc2cc(C(F)(F)F)cc(C(F)(F)F)c2)(C2=CCSCC2)CC1=O (stereo not given) | ≤ 30 nM
CC[C@@]1(C(=O)Nc2cc(N3CCCC3)cc(C(F)(F)F)c2)CN(c2c(C)cccc2C)C(=O)[C@H]1C | 30 to 300 nM
CC[C@@]1(C(=O)Nc2cc(OC3CCC3)cc(C(F)(F)F)c2)CN(c2c(C)cccc2C)C(=O)[C@H]1C | ≤ 30 nM
Cc1ccccc1N1CC(C(=O)Nc2cc(C3CC3)cc(C(F)(F)F)c2)(C(C)C)CC1=O (stereo not given) | 30 to 300 nM
Cc1cccc(C)c1N1CC(C(=O)Nc2cc(C(F)(F)F)cc(C(F)(F)F)c2)(C2CCN(C)CC2)CC1=O (stereo not given) | 300 to 6000 nM
COCC1(C(=O)Nc2cc(C(F)(F)F)cc(C(F)(F)F)c2)CC(=O)N(c2c(C)cccc2C)C1 (stereo not given) | ≤ 30 nM
Cc1cccc(C)c1N1C[C@](C(=O)Nc2cc(C(F)(F)F)cc(C(F)(F)F)c2)(C2CCOCC2)[C@@H](C)C1=O | 30 to 300 nM
Cc1cccc(C)c1N1CC(C(=O)Nc2cc(C(F)(F)F)cc(C(F)(F)F)c2)(C2CCC2)CC1=O (stereo not given) | ≤ 30 nM
CCC1(C(=O)Nc2cc(C(F)(F)F)cc(C(F)(F)F)c2)CC(=O)N(c2c(C)cccc2C)C1 (stereo not given) | ≤ 30 nM
Cc1ccccc1N1CC(C)(C(=O)Nc2cc(C(F)(F)F)cc(C(F)(F)F)c2)C(C)C1=O (stereo not given) | ≤ 30 nM
CC[C@@]1(C(=O)Nc2cc(N(C)C)cc(C(F)(F)F)c2)CN(c2c(C)cccc2C)C(=O)[C@H]1C | 30 to 300 nM
Cc1ccccc1N1CC(C(=O)Nc2cc(C(F)(F)F)cc(C(F)(F)F)c2)(C(C)C)CC1=O (stereo not given) | ≤ 30 nM
CCC1(C(=O)Nc2cc(C(F)(F)F)cc(C(F)(F)F)c2)CC(=O)N(c2ccccc2OC)C1 (stereo not given) | 300 to 6000 nM
Cc1cccc(C)c1N1CC(CO)(C(=O)Nc2cc(C(F)(F)F)cc(C(F)(F)F)c2)CC1=O (stereo not given) | 30 to 300 nM
CC[C@@]1(C(=O)Nc2cc(OC)cc(C(F)(F)F)c2)CN(c2c(C)cccc2C)C(=O)[C@H]1C | 30 to 300 nM
Cc1cccc(C)c1N1CC(C(=O)Nc2cc(C(F)(F)F)cc(C(F)(F)F)c2)(C(C)(C)O)CC1=O (stereo not given) | ≤ 30 nM
CC[C@@]1(C(=O)Nc2cc(C(F)(F)F)cc(C(F)(F)F)c2)CC(=O)N(c2c(C)cccc2C)C1 | 30 to 300 nM
CC[C@@]1(C(=O)Nc2cc(C(F)(F)F)cc(C(F)(F)F)c2)CN(c2c(C)cccc2C)C(=O)[C@H]1C | 30 to 300 nM
Cc1cccc(C)c1N1CC(C(=O)Nc2cc(Br)cc(C(F)(F)F)c2)(C(C)C)CC1=O (stereo not given) | ≤ 30 nM
CCOc1cc(NC(=O)[C@]2(CC)CN(c3c(C)cccc3C)C(=O)[C@H]2C)cc(C(F)(F)F)c1 | 30 to 300 nM
CC[C@]1(C(=O)Nc2cc(C(F)(F)F)cc(C(F)(F)F)c2)CC(=O)N(c2c(C)cccc2C)C1 | ≤ 30 nM
CCC[C@@]1(C(=O)Nc2cc(C(F)(F)F)cc(C(F)(F)F)c2)CN(c2c(C)cccc2C)C(=O)[C@H]1C | ≤ 30 nM
CC(C)C1(C(=O)Nc2cc(C(F)(F)F)cc(C(F)(F)F)c2)CC(=O)N(c2ccccc2Cl)C1 (stereo not given) | 30 to 300 nM

SMILES | IC50
COc1ccccc1N1CC(C(=O)Nc2cc(C3CC3)cc(C(F)(F)F)c2)(C(C)C)CC1=O (stereo not given) | 300 to 6000 nM
Cc1cccc(C)c1N1CC(C(=O)Nc2cc(C(F)(F)F)cc(C(F)(F)F)c2)(C(C)O)CC1=O (stereo not given) | 30 to 300 nM
CC(C)C1(C(=O)Nc2cc(C(F)(F)F)cc(C(F)(F)F)c2)CC(=O)N(c2ccccc2C2CC2)C1 (stereo not given) | 30 to 300 nM
Cc1cccc(C)c1N1CC(C(=O)Nc2cc(C(F)(F)F)cc(C(F)(F)F)c2)(C2CCSCC2)CC1=O (stereo not given) | ≤ 30 nM
Cc1cccc(C)c1N1CC(C(=O)Nc2cc(C(F)(F)F)cc(C(F)(F)F)c2)(C2CCN(C(=O)OC(C)(C)C)CC2)CC1=O (stereo not given) | ≤ 30 nM
Cc1cccc(C)c1N1C[C@@](C)(C(=O)Nc2cc(C(F)(F)F)cc(C(F)(F)F)c2)[C@H](C)C1=O | ≤ 30 nM
CC[C@@]1(C(=O)Nc2cc(Cl)cc(C(F)(F)F)c2)CN(c2c(C)cccc2C)C(=O)[C@H]1C | ≤ 30 nM
Cc1cccc(C)c1N1CC(C(=O)Nc2cc(C(F)(F)F)cc(C(F)(F)F)c2)(C2=CCS(=O)(=O)CC2)CC1=O (stereo not given) | 30 to 300 nM
Cc1cccc(C)c1N1C[C@](C)(C(=O)Nc2cc(C(F)(F)F)cc(C(F)(F)F)c2)[C@H](C)C1=O | 30 to 300 nM
CCCCC1(C(=O)Nc2cc(C(F)(F)F)cc(C(F)(F)F)c2)CC(=O)N(c2c(C)cccc2C)C1 (stereo not given) | ≤ 30 nM
Cc1cccc(C)c1N1CC(C(=O)Nc2cc(C(F)(F)F)cc(C(F)(F)F)c2)(C2=CCN(C)CC2)CC1=O (stereo not given) | 30 to 300 nM
CC[C@@]1(C(=O)Nc2cc(OC3CCCC3)cc(C(F)(F)F)c2)CN(c2c(C)cccc2C)C(=O)[C@H]1C | ≤ 30 nM
CC[C@@H]1C(=O)N(c2c(C)cccc2C)C[C@]1(C)C(=O)Nc1cc(C(F)(F)F)cc(C(F)(F)F)c1 | 300 to 6000 nM
CC[C@@]1(C(=O)Nc2cc(C(F)(F)F)cc(C(F)(F)F)c2)CN(c2c(C)cccc2C)C(=O)[C@H]1OC | ≤ 30 nM
CCCC[C@@]1(C(=O)Nc2cc(C(F)(F)F)cc(C(F)(F)F)c2)CN(c2c(C)cccc2C)C(=O)[C@H]1C | ≤ 30 nM
C=CCC1C(=O)N(c2c(C)cccc2C)CC1(CC=C)C(=O)Nc1cc(C(F)(F)F)cc(C(F)(F)F)c1 (stereo not given) | ≤ 30 nM
Cc1cccc(C)c1N1CC(C)(C(=O)Nc2cc(C(F)(F)F)cc(C(F)(F)F)c2)CC1=O (stereo not given) | ≤ 30 nM
Cc1ccccc1N1CC(C)(C(=O)Nc2cc(C(F)(F)F)cc(C(F)(F)F)c2)CC1=O (stereo not given) | ≤ 30 nM
CC[C@@H]1C(=O)N(c2c(C)cccc2C)C[C@@]1(C)C(=O)Nc1cc(C(F)(F)F)cc(C(F)(F)F)c1 | ≤ 30 nM
Cc1cccc(C)c1N1CC(C(=O)Nc2cc(C(F)(F)F)cc(C(F)(F)F)c2)(C2CCCCC2)CC1=O (stereo not given) | ≤ 30 nM
CCCC1(C(=O)Nc2cc(C(F)(F)F)cc(C(F)(F)F)c2)CC(=O)N(c2c(C)cccc2C)C1 (stereo not given) | ≤ 30 nM
CC[C@@]1(C(=O)Nc2cc(C3CC3)cc(C(F)(F)F)c2)CN(c2c(C)cccc2C)C(=O)[C@H]1C | ≤ 30 nM
Cc1cccc(C)c1N1CC(CCC(C)C)(C(=O)Nc2cc(C(F)(F)F)cc(C(F)(F)F)c2)CC1=O (stereo not given) | ≤ 30 nM
Cc1cccc(C)c1N1CC(C(=O)Nc2cc(C(F)(F)F)cc(C(F)(F)F)c2)(C2=CCOCC2)CC1=O (stereo not given) | ≤ 30 nM
CC[C@@H]1C(=O)N(c2c(C)cccc2C)C[C@@]1(CC)C(=O)Nc1cc(C(F)(F)F)cc(C(F)(F)F)c1 | ≤ 30 nM

SMILES | IC50
CC(C)C1(C(=O)Nc2cc(C3CC3)cc(C(F)(F)F)c2)CC(=O)N(c2ccccc2Cl)C1 (stereo not given) | 30 to 300 nM
Cc1cccc(C)c1N1CC(CCCO)(C(=O)Nc2cc(C(F)(F)F)cc(C(F)(F)F)c2)CC1=O (stereo not given) | 30 to 300 nM
Cc1cccc(C)c1N1CC(CC(C)C)(C(=O)Nc2cc(C(F)(F)F)cc(C(F)(F)F)c2)CC1=O (stereo not given) | ≤ 30 nM
Cc1cccc(C)c1N1CC(C(=O)Nc2cc(C(F)(F)F)cc(C(F)(F)F)c2)(C(C)N2CCCC2)CC1=O (stereo not given) | 300 to 6000 nM
Cc1cccc(C)c1N1C[C@@](CN2CCC(F)CC2)(C(=O)Nc2cc(C3CC3)cc(C(F)(F)F)c2)[C@H](C)C1=O | 30 to 300 nM
Cc1cccc(C)c1N1C[C@](C(=O)Nc2cc(NC(C)C)cc(C(F)(F)F)c2)(C(C)C)[C@H](C)C1=O | 30 to 300 nM
CC[C@]1(C(=O)Nc2cc(Cl)cc(C(F)(F)F)c2)CC(=O)N(c2c(C)cccc2C)C1 | 30 to 300 nM
Cc1cccc(C)c1N1C[C@](C(=O)Nc2cc(C(F)(F)F)cc(C(F)(F)F)c2)(C2CCOCC2)[C@H](C)C1=O | ≤ 30 nM
Cc1cccc(C)c1N1CC(COCc2ccccc2)(C(=O)Nc2cc(C(F)(F)F)cc(C(F)(F)F)c2)CC1=O (stereo not given) | ≤ 30 nM
Cc1cc(C)n(C2(C(=O)Nc3cc(C(F)(F)F)cc(C(F)(F)F)c3)CC(=O)N(c3c(C)cccc3C)C2)n1 (stereo not given) | ≤ 30 nM
Cc1cccc(C)c1N1CC(C(=O)Nc2cc(C(F)(F)F)cc(C(F)(F)F)c2)(C2=CCN(C(=O)OC(C)(C)C)CC2)CC1=O (stereo not given) | ≤ 30 nM
Cc1cccc(C)c1N1C[C@@](CC(C)C)(C(=O)Nc2cc(C(F)(F)F)cc(C(F)(F)F)c2)[C@H](C)C1=O | ≤ 30 nM
Cc1cccc(C)c1N1CC(O)(C(=O)Nc2cc(C(F)(F)F)cc(C(F)(F)F)c2)CC1=O (stereo not given) | 30 to 300 nM
CC[C@@]1(C(=O)Nc2cc(F)cc(C(F)(F)F)c2)CN(c2c(C)cccc2C)C(=O)[C@H]1C | 30 to 300 nM
Cc1cccc(C)c1N1CC(C(=O)Nc2cc(C(F)(F)F)cc(C(F)(F)F)c2)(C2CCCC2)CC1=O (stereo not given) | ≤ 30 nM
Cc1cccc(C)c1N1CC(CC2CCN(Cc3ccccc3)C2)(C(=O)Nc2cc(C(F)(F)F)cc(C(F)(F)F)c2)CC1=O (stereo not given) | ≤ 30 nM
CC[C@@]1(C(=O)Nc2cc(C(F)(F)F)cc(C(F)(F)F)c2)CN(c2c(C)cccc2C)C(=O)[C@@H]1C | 30 to 300 nM
CC[C@@]1(C(=O)Nc2cc(C#N)cc(C(F)(F)F)c2)CN(c2c(C)cccc2C)C(=O)[C@H]1C | ≤ 30 nM
CCC(C)(C)C1(C(=O)Nc2cc(C(F)(F)F)cc(C(F)(F)F)c2)CC(=O)N(c2c(C)cccc2C)C1 (stereo not given) | 30 to 300 nM
Cc1cccc(C)c1N1C[C@@](C(=O)Nc2cc(C(F)(F)F)cc(C(F)(F)F)c2)(C(C)C)[C@H](C)C1=O | ≤ 30 nM
Cc1cccc(C)c1N1CC(C(=O)Nc2cc(C(F)(F)F)cc(C(F)(F)F)c2)(C2CCOCC2)CC1=O (stereo not given) | ≤ 30 nM
CCC1(C(=O)Nc2cccc(C(F)(F)F)c2)CC(=O)N(c2c(C)cccc2C)C1 (stereo not given) | 300 to 6000 nM
CC[C@@]1(C(=O)Nc2cc(C)cc(C(F)(F)F)c2)CN(c2c(C)cccc2C)C(=O)[C@H]1C | ≤ 30 nM
Cc1cccc(C)c1N1C[C@](C(=O)Nc2cc(OC(C)C)cc(C(F)(F)F)c2)(C(C)C)CC1=O | ≤ 30 nM
Cc1cccc(C)c1N1C[C@](C(=O)Nc2cc(C(F)(F)F)cc(C(F)(F)F)c2)(C(C)C)[C@H](C)C1=O | 30 to 300 nM
